Reference: patent US20110053913A1, “Methods and Therapies for Alleviating Pain” (priority 2009, published 2011)

What was measured:
rats [1] = experiment: Analgesic effect of ultra-low dose alpha-2 receptor antagonist administered alone, tail flick and paw pressure tests; assay type: in vivo, rat
Procedure: Baseline latencies were obtained every 5 minutes for 15 minutes prior to injection of either vehicle (saline 0.9%) or atipemazole and tested every 30 minutes for 3 hours. Data were converted to % maximum possible effect.
(§1) Experiments were conducted using adult male Sprague-Dawley rats (Charles River, St. Constant, QC, Canada) weighing between 200-250 grams. Animals were housed individually in standard laboratory cages, maintained on a 12-hour light/dark cycle, and provided with food and water ad libitum. The surgical placement of chronic indwelling intrathecal catheters (polyethylene PE 10 tubing, 7.5 cm) into the spinal subarachnoid space was made under 4% halothane anesthesia, using the method of Yaksh and Rudy Physiol. Behav. 1976 7:1032-1036). Specifically, the anesthetized animal was placed prone in a stereotaxic frame, a small incision made at the back of the neck, and the atlanto-occipital membrane overlying the cisterna magna was exposed and punctured with a blunt needle. The catheter was inserted through the cisternal opening and slowly advanced caudally to position its tip at the lumbar enlargement. The rostral end of the catheter was exteriorized at the top of the head and the wound closed with sutures. Animals were allowed 3-4 days recovery from surgery and only those free from neurological deficits, such as the hindlimb or forelimb paralysis or gross motor dysfunction, were included in the study. All drugs were injected intrathecally as solutions dissolved in physiological saline (0.9%) through the exteriorized portion of the catheter at a volume of 10 μl followed by a 10 μl volume of 0.9% saline to flush the catheter.
(§2) The tail flick test (D'amour & Smith, J. Pharmacol. Exp. Ther. 1941 72:74-79) was used to measure the response to a thermal nociceptive stimulus. Radiant heat was applied to the distal third of the animal's tail and the response latency for tail withdrawal from the source was recorded using an analgesia meter (Owen et al., J. Pharmacol. Methods 1981 6:33-37)). The stimulus intensity was adjusted to yield baseline response latencies between 2-3 seconds. To minimize tail damage, a cutoff of 10 seconds was used as an indicator of maximum antinociception.
(§3) The paw pressure test (Loomis et al., Pharm. Biochem. 1987 26:131-139) was used to measure the response to a mechanical nociceptive stimulus. Pressure was applied to the dorsal surface of the hind paw using an inverted air-filled syringe connected to a gauge and the value at which the animal withdrew its paw was recorded. A maximum cutoff pressure of 300 mmHg was used to avoid tissue damage. Previous experience has established that there is no significant interaction between the tail flick and paw pressure tests (Loomis et al., Can. J. Physiol. Pharmacol. 1985 63:656-662).
The analgesic effect of an ultra-low dose of an alpha-2 receptor antagonist administered alone was examined. Atipemazole was administered systemically, in three successive administrations, at 20 ng/kg or 200 ng/kg.
The analgesic effect of an ultra-low dose of an alpha-2A receptor antagonist administered alone was also examined. BRL 44408 was administered intrathecally, in a single administration, at 1.65 ng. In another study, three successive doses of BRL 44408 (1.65 ng) were administered intrathecally.
(§4) For the in vivo studies, tail flick and paw pressure values were converted to a maximum percentage effect (M.P.E.): M.P.E.=100×[post-drug response−baseline response]/[maximum response−baseline response]. Data represented in the figures are expressed as mean (±S.E.M.). The ED50 values were determined using a non-linear regression analysis (Prism 2, GraphPad Software Inc., San Diego, Calif., USA). Statistical significance (p<0.05, 0.01. or 0.001) was determined using a one-way analysis of variance followed by a Student Newman-Keuls post hoc test for multiple comparisons between groups.

rats [2] = experiment: Potentiation of morphine analgesia and acute morphine tolerance, tail flick and paw pressure tests; assay type: in vivo, rat
Procedure: as §1, §2, §3
The effects of ultra-low doses of atipemazole, yohimbine, idazoxan and mirtazapine, as well as the selective alpha-2A receptor antagonist BRL 44408, were also tested for potentiation of acute analgesic action of spinal or subcutaneous morphine. Acute opioid tolerance was induced by three serial intrathecal morphine injections (15 μg) or systemic morphine injections (2.5 mg/kg sc). Rats were administered morphine alone, a combination of morphine (15 μg intrathecally or 2.5 mg/kg sc) and an ultra low dose of atipemazole, yohimbine, idazoxan, mirtazapine, or BRL 44408. Results for atipemazole are depicted in FIGS. 2A, 2B, 11A and 11B. Results for yohimbine are depicted in FIGS. 6A and 6B. Results for idazoxan are depicted in FIGS. 10A and 10B. Results for mirtazapine are depicted in FIGS. 8A and 8B. Results for BRL 44408 are depicted in FIGS. 14A and 14B.
as §4, with “Statistical significance (p<0.05, 0.01. or 0.001) was determined using a one-way analysis of variance followed by a Student Newman-Keuls post hoc test for multiple comparisons between groups.” left out

rats [3] = details: morphine, cited from earlier work
spinal alpha-2 receptors = experiment: Inhibition of spinal clonidine analgesia by alpha-2 receptor antagonists (tail flick / paw pressure); assay type: in vivo, rat; details: tail flick test, FIG. 12
Procedure: Experiments were conducted using adult male Sprague-Dawley rats (Charles River, St. Constant, QC, Canada) weighing between 200-250 grams. Animals were housed individually in standard laboratory cages, maintained on a 12-hour light/dark cycle, and provided with food and water ad libitum. The surgical placement of chronic indwelling intrathecal catheters (polyethylene PE 10 tubing, 7.5 cm) into the spinal subarachnoid space was made under 4% halothane anesthesia, using the method of Yaksh and Rudy Physiol. Behav. 1976 7:1032-1036). […]
The tail flick test (D'amour & Smith, J. Pharmacol. Exp. Ther. 1941 72:74-79) was used to measure the response to a thermal nociceptive stimulus. Radiant heat was applied to the distal third of the animal's tail and the response latency for tail withdrawal from the source was recorded using an analgesia meter (Owen et al., J. Pharmacol. Methods 1981 6:33-37)). […]
The paw pressure test (Loomis et al., Pharm. Biochem. 1987 26:131-139) was used to measure the response to a mechanical nociceptive stimulus. Pressure was applied to the dorsal surface of the hind paw using an inverted air-filled syringe connected to a gauge and the value at which the animal withdrew its paw was recorded. […]

rats [4] = experiment: Formalin test, persistent inflammatory pain model; assay type: in vivo, rat; details: atipemazole alone sc 20 minutes prior to 1% formalin into hind paw; dark phase; N=4; FIGS. 15A, 15B
Procedure: In a further experiment, the analgesic effect of atipemazole was examined using the formalin test, a persistent inflammatory pain model. The experiment was conducted with rats during the dark phase of the light-dark cycle. Rats were administered 1% formalin and pain behaviour was assessed by a weighted score. Atipemazole, morphine, or vehicle was injected by subcutaneous injection 20 minutes prior to formalin injection into the plantar surface of the rat hind paw. The behavior was evaluated in 5 min intervals, and the severity of the response was determined.
The formalin test is a widely used tonic model of continuous pain resulting from formalin-induced tissue injury. It is a useful model, particularly for the screening of novel compounds, since it encompasses inflammatory, neurogenic, and central mechanisms of nociception. We used 1% formalin and assessed pain behavior by a weighted score. […]
Briefly, the nociceptive behavior was assessed as follows: (1) no favouring of the injected hind paw, (2) favouring, (3) complete elevation of the hind paw from the floor, and (4) licking or flinching. The behavior was evaluated in 5 min intervals, and the severity of the response was determined by the following formula: (0×the time spent in category 1, 1×the time spent in category 2, 2×the time spent in category 3, 3×the time spent in category 4).

SMILES: c1ccc2c(c1)OCC(C1=NCCN1)O2 (stereo not drawn) [idazoxan]
- analgesic response, antagonist alone, repeated administration (rats [1]; idazoxan intrathecally alone, ultra-low dose, repeated): no significant analgesic response

SMILES: COC(=O)[C@@H]1[C@H]2C[C@H]3c4[nH]c5ccccc5c4CCN3C[C@@H]2CC[C@@H]1O [yohimbine]
- analgesic response, antagonist alone, repeated administration (rats [1]; yohimbine 0.024 ng intrathecally alone at 90 minute intervals, FIGS. 6A, 6B): no significant analgesic response

SMILES: CN1CC[C@]23c4c5ccc(O)c4O[C@H]2[C@@H](O)C=C[C@H]3[C@H]1C5 [morphine]
- analgesic response to repeated morphine (rats [2]; morphine 2.5 mg/kg sc alone, three injections at 90 minute intervals, both tests, FIGS. 11A, 11B): rapid decay of the analgesic response
- decline of the analgesic effect of morphine observed after the first injection (rats [2]; three successive intrathecal doses of morphine 15 μg at 90 minute intervals, end of the 240 minute test period, FIGS. 2A, 2B): ~80%
- ED50 dose during the dark phase (rats [3]; dark phase of light-dark cycle): 0.25 mg/kg
- ED50 dose during the light phase (rats [3]; light phase of light-dark cycle): 5 mg/kg
- potency in the dark phase compared to the light phase (rats [3]; nociceptive testing): 10 fold

SMILES: CC1c2ccccc2CN1CC1=NCCN1.O=C(O)/C=C\C(=O)O (stereo not drawn) [BRL 44408, 2-[2H-(1-Methyl-1,3-dihydroisoindole)methyl]-4,5-dihydroimidazole maleate]
- antagonism of clonidine analgesia (spinal alpha-2 receptors; BRL 44408 3.3 μg with clonidine 13.3 μg intrathecally): did not antagonize clonidine
- antagonism of clonidine analgesia (spinal alpha-2 receptors; BRL 44408 16.5 μg with clonidine 13.3 μg intrathecally): antagonized clonidine analgesia
- effect on morphine analgesia after a single administration (rats [2]; BRL 44408 1.65 ng with morphine 15 μg intrathecally once, relative to morphine alone, FIGS. 13A, 13B): significantly increased morphine analgesia
- effect on analgesic action of morphine in the acute tolerance study (rats [2]; BRL 44408 1.65 ng with morphine intrathecally, three injections at 90 minute intervals, FIGS. 14A, 14B): increased the acute analgesic action of morphine
- analgesia after a single administration, antagonist alone (rats [1]; BRL 44408 1.65 ng intrathecally alone, single administration, relative to saline, FIGS. 13A, 13B): significant analgesia, relative to saline administration, after 60 minutes
- course and duration of analgesia after a single administration, antagonist alone (rats [1]; BRL 44408 1.65 ng intrathecally alone, single administration, FIGS. 13A, 13B): increased and persisted for the duration of the study (180 minutes)

SMILES: CCC1(c2cnc[nH]2)Cc2ccccc2C1 [atipemazole]
- effect on acute tolerance to the analgesic actions of spinal morphine (rats [2]; atipemazole 0.8 ng with morphine 15 μg intrathecally, three injections at 90 minute intervals, FIGS. 2A, 2B): prevented the decline of the analgesic effect of morphine
- effect on acute morphine analgesia (rats [2]; atipemazole 0.8 or 0.08 ng with morphine 15 μg intrathecally, FIGS. 3A, 3B): potentiates opioid analgesia
- effect on acute tolerance to morphine (loss of response) (rats [2]; atipemazole 20 or 200 ng/kg sc with morphine 2.5 mg/kg sc, three injections at 90 minute intervals, FIGS. 11A, 11B): significantly reduced the loss of response to morphine alone
- analgesic response, antagonist alone, repeated administration (rats [1]; atipemazole 0.8 ng intrathecally alone at 90 minute intervals, FIGS. 2A, 2B): incremental but weak analgesic response
- analgesic effect, antagonist alone (rats [1]; atipemazole 0.8 ng intrathecally alone, FIGS. 3A, 3B): weak, albeit insignificant, analgesic effect
- antinociceptive effect in the tail flick test, dark phase (rats [1]; atipemazole 200 ng/kg sc, rats on reverse light/dark cycle, administered during the dark phase, tested every 30 minutes for 3 hours): did not produce a significant antinociceptive effect
- analgesic response in the tail flick test, antagonist alone (rats [1]; atipemazole 20 and 200 ng/kg sc alone at 90 minute intervals, tail flick, FIG. 11A): delayed analgesic response
- analgesia in the formalin test (weighted pain score) (rats [4]): as effective as morphine
